Literature values as cited in patent publication US6927291B2, “Method for the synthesis of 2′,3′-dideoxy-2′,3′-didehydronucleosides” (Pharmasset, Ltd., priority 2001, dated 2005).

Assays:
HIV [1] = conditions: result in words
HIV [2] = conditions: versus all approved anti-HIV agents
[3] = tested on: AZT-resistant HIV isolates; conditions: in vitro; isolates from patients treated with AZT for longer than 36 weeks

| Compound | activity against HIV (HIV [1]) | cross-resistance (HIV [2]) | inhibition of replication of AZT-resistant HIV isolates [3] |
| --- | --- | --- | --- |
| Nc1nc(=O)n(C2C=CC(CO)O2)cc1F [β-D-D4FC, β-D-2′,3′-didehydro-2′,3′-dideoxy-5-fluorocytidine] | potent anti-HIV activity in vitro | no cross-resistance with all approved anti-HIV agents | – |
| Nc1nc(=O)n([C@@H]2CS[C@H](CO)O2)cc1F (relative stereo) [FTC, cis-2-hydroxymethyl-5-(5-fluorocytosin-1-yl)-1,3-oxathiolane] | potent HIV activity | – | – |
| Nc1ccn(C2CSC(CO)O2)c(=O)n1 (racemic) [BCH-189, 2-hydroxymethyl-5-(cytosin-1-yl)-1,3-oxathiolane] | approximately the same activity against HIV as AZT | – | inhibit the replication of AZT-resistant HIV isolates in vitro |
| Nc1ccn([C@@H]2CS[C@H](CO)O2)c(=O)n1 [Formula 3TC] | highly potent against HIV | – | – |
